Measurements from publication PMC10523091, “Stereo/regio-selective access to substituted 3-hydroxy-oxindoles with anti-proliferative assessment and in silico validation” (RSC Advances, 2023).
Where two headings read alike, the source gives them in different places.

Key:
HCT116 = test: MTS cell viability assay, HCT116; format: cell-based; settings: for SI HCT116: SI = (IC50 for normal cell line FHC)/(IC50 for HCT116)
Method: (§1) The newly synthesized compounds were subjected to assessment for their potential to inhibit the proliferation of various cancer cell lines including colorectal carcinoma (HCT116), ovarian cancer (OVCAR 10), and human metastatic melanoma (1205Lu), and non-cancerous fetal human cells (FHC). […] In order to ascertain whether compound 4j is selectively cytotoxic or anti-proliferative to cancer cells, it was tested for non-cancerous fetal human cells (FHC).
(§2) HCT116, OVCAR 10, 1205Lu, and FHC cell lines were procured from American Type Culture Collection (ATCC, Manassas, VA, USA). All the cells were grown based on the recommendations by ATCC at 37 °C in a humidified atmosphere with CO2. Stock solutions of compounds were made up and delivered to cells in DMSO.
(§3) The cell viability assay was performed as described earlier[27] HCT116, OVCAR 10, 1205Lu, and FHC adherent cell lines were seeded in 96-well plate at a density of 5 × 10^3 cells per well. Next day, the cells were treated with the respective compounds at different doses for 48 h in triplicates. At the end of the treatment duration, the media were removed and fresh media were added containing 20 μL of [3-(4,5-dimethylthiazol-2-yl)-5-(3-carboxymethoxyphenyl)-2-(4-sulfophenyl)-2H-tetrazolium] (MTS) reagent per well (Promega, WI, USA). The optical densities of the solubilized formazan crystals were read with a 96-well multi-scanner (Dynex Technologies, MRX Revelation; Chantilly, VA, USA) at 490 nm and 630 nm, and the normalized percent viability was calculated. The IC50 values were calculated using non-linear regression (curve fit).

OVCAR 10 = test: MTS cell viability assay, OVCAR 10; format: cell-based; settings: for SI OVCAR10: SI = (IC50 for normal cell line FHC)/(IC50 for OVCAR10)
Method: as §1, §2, §3

1205Lu = test: MTS cell viability assay, 1205Lu; format: cell-based, human; settings: for SI 1205Lu: SI = (IC50 for normal cell line FHC)/(IC50 for 1205Lu)
Method: as §1, §2, §3

FHC = test: MTS cell viability assay, non-cancerous FHC; format: cell-based; settings: 48 h treatment, non-cancerous fetal human cells, read-out: IC50 (μM) ± SD FHC
Method: as §1, §2, §3

HCT-116 cells [1] = test: Annexin V/7-AAD apoptosis assay; format: cell-based; settings: 10 μM
Method: (§4) We further carried out apoptosis experiments utilizing the caspase-3/7 7-AAD and Annexin V/7-AAD assays to evaluate the mode of cell death.
(§5) The apoptosis assay using Muse Annexin V/7-AAD and Caspase 3/7 7-AAD assay kit (EMD Millipore, Darmstadt, Germany) was performed following manufacturer's protocol as described earlier.[28] Briefly, the cells were seeded in 6-well plate at a density of 1 × 10^5 cells per well. After 24 h incubation, the cells were treated with 10 μM of compound 4j. The cells were incubated for 24 and 48 h. At the end of the treatment period, the cells were harvested using enzyme free cell dissociation buffer. The samples were treated with the respective dyes based on the manufacturer's protocol. The samples were further analysed in Muse Cell Analyzer (Merck Millipore, Darmstadt, Germany).

HCT-116 cells [2] = test: Caspase 3/7 7-AAD apoptosis assay; format: cell-based; settings: 10 μM
Method: as §4, §5

[3] = MTS assay, 48 h treatment, ovarian cancer, read-out: IC50 (μM) ± SD OVCAR 10
[4] = Homo sapiens, HCT-116, MTS assay, 48 h treatment, colorectal carcinoma, read-out: IC50 (μM) ± SD HCT116
[5] = 1205Lu, MTS assay, 48 h treatment, human metastatic melanoma, read-out: IC50 (μM) ± SD 1205Lu
[6] = Homo sapiens, HCT-116, repeated in docking table, unit inferred, read-out: IC50 HCT116
[7] = repeated in docking table, unit inferred, read-out: IC50 OVCAR10
[8] = Homo sapiens, 1205Lu, repeated in docking table, unit inferred, read-out: IC50 1205Lu

IC50 (OVCAR 10; [3]) | IC50 (HCT116; [4]) | melting point | SMILES | IC50 (1205Lu; [5]) | IC50 (FHC; FHC) | also measured
120 ± 15.4 µM | 104 ± 25 µM |  | O=C1N(Cc2ccccc2)c2ccccc2C1(O)CN1CCOCC1 (stereo not shown) [Compound 4a, 1-Benzyl-3-hydroxy-3-(morpholinomethyl)indolin-2-one] | 111 ± 18.9 µM | 122 ± 13.2 µM | 
69.2 ± 16.2 µM | 85.2 ± 15.3 µM |  | O=C1N(Cc2ccccc2)c2ccccc2C1(O)CN1CCCCC1 (stereo not shown) [Compound 4b, 1-Benzyl-3-hydroxy-3-(piperidin-1-ylmethyl)indolin-2-one] | 65.3 ± 15.3 µM | 63.5 ± 22.2 µM | 
61.2 ± 13.2 µM | 65.9 ± 16.7 µM | 169 to 171 °C | O=C1N(Cc2ccccc2)c2ccccc2C1(O)CN1CCCC1 (stereo not shown) [Compound 4c, 1-Benzyl-3-hydroxy-3-(pyrrolidin-1-ylmethyl)indolin-2-one] | 78.2 ± 24 µM | 76.3 ± 14.5 µM | 
87.9 ± 13 µM | 84.1 ± 19.4 µM |  | O=C1N(Cc2ccccc2)c2ccc(Br)cc2C1(O)CN1CCOCC1 (stereo not shown) [Compound 4d, 1-Benzyl-5-bromo-3-hydroxy-3-(morpholinomethyl)indolin-2-one] | 81.2 ± 15.1 µM | 73.2 ± 19.6 µM | 
93.1 ± 15.6 µM | 92.2 ± 17.2 µM | 189 to 191 °C | O=C1N(Cc2ccccc2)c2ccc(Br)cc2C1(O)CN1CCCCC1 (stereo not shown) [Compound 4e, 1-Benzyl-5-bromo-3-hydroxy-3-(piperidin-1-ylmethyl)indolin-2-one] | 98 ± 13.2 µM | 88.3 ± 16.9 µM | 
88.5 ± 18.9 µM | 85.3 ± 16 µM | 144 to 146 °C | O=C1N(Cc2ccccc2)c2ccc(Br)cc2C1(O)CN1CCCC1 (stereo not shown) [Compound 4f, 1-Benzyl-5-bromo-3-hydroxy-3-(pyrrolidin-1-ylmethyl)indolin-2-one] | 85.6 ± 13.2 µM | 81.3 ± 15.6 µM | 
112 ± 11.7 µM | 121 ± 17.1 µM | 191 to 193 °C | O=C1N(Cc2ccccc2)c2ccc(Cl)cc2C1(O)CN1CCOCC1 (stereo not shown) [Compound 4g, 1-Benzyl-5-chloro-3-hydroxy-3-(morpholinomethyl)indolin-2-one] | 125 ± 19.8 µM | 121 ± 21.2 µM | 
130 ± 17.2 µM | 117 ± 19.6 µM |  | O=C1N(Cc2ccccc2)c2ccc(Cl)cc2C1(O)CN1CCCCC1 (stereo not shown) [Compound 4h] | 110 ± 18.4 µM | 106 ± 17.2 µM | 
81.5 ± 12.5 µM | 93.4 ± 19.3 µM | 121 to 124 °C | O=C1N(Cc2ccccc2)c2ccc(Cl)cc2C1(O)CN1CCCC1 (stereo not shown) [Compound 4i, 1-Benzyl-5-chloro-3-hydroxy-3-(pyrrolidin-1-ylmethyl)indolin-2-one] | 96.4 ± 18.8 µM | 96.5 ± 22.2 µM | 
91.2 ± 18.7 µM | 110 ± 24.4 µM | 170 to 172 °C | O=C1N(Cc2ccccc2)c2c(Br)cc(Br)cc2C1(O)CN1CCCCC1 (stereo not shown) [Compound 4k, 1-Benzyl-5,7-dibromo-3-hydroxy-3-(piperidin-1ylmethyl)indolin-2-one] | 89.9 ± 16.8 µM | 88.6 ± 20.3 µM | IC50 (HCT116; [6]): 110 µM; IC50 (OVCAR 10; [7]): 91.2 µM; IC50 (1205Lu; [8]): 89.9 µM
94.3 ± 18 µM | 91.5 ± 26.9 µM |  | O=C1N(Cc2ccccc2)c2c(Br)cc(Br)cc2C1(O)CN1CCCC1 (stereo not shown) [Compound 4l] | 91.6 ± 18.3 µM | 94.8 ± 15.3 µM | 
92.3 ± 18.2 µM | 95.4 ± 9.66 µM |  | O=C1Nc2ccccc2C1(O)CN1CCOCC1 (stereo not shown) [Compound 4m, 3-Hydroxy-3-(morpholinomethyl)indolin-2-one] | 99.7 ± 11.5 µM | 89.4 ± 14.6 µM | 
112 ± 21.3 µM | 105 ± 23.3 µM | 154 to 156 °C | O=C1Nc2ccccc2C1(O)CN1CCCCC1 (stereo not shown) [Compound 4n, 3-Hydroxy-3-(piperidin-1-ylmethyl)indolin-2-one] | 109 ± 24.7 µM | 96.8 ± 18.5 µM | 
116 ± 11.8 µM | 102 ± 18.7 µM |  | O=C1Nc2ccccc2C1(O)CN1CCCC1 (stereo not shown) [Compound 4o, 3-Hydroxy-3-(pyrrolidin-1-ylmethyl)indolin-2-one] | 130 ± 14 µM | 95.7 ± 13 µM | 
22.4 ± 4.1 µM | 22.3 ± 1.7 µM |  | O=c1[nH]cc(F)c(=O)[nH]1 [Compound 5-FU, 5-fluorouracil, reference compound] | 15.4 ± 2.9 µM | 21.3 ± 4.2 µM | IC50 (HCT116; [6]): 22.3 µM; SI HCT116 (HCT116): 0.95; SI OVCAR10 (OVCAR 10): 0.95; IC50 (OVCAR 10; [7]): 22.4 µM; IC50 (1205Lu; [8]): 15.4 µM; SI 1205Lu (1205Lu): 1.38

SMILES | IC50 (OVCAR 10; [3]) | IC50 (HCT116; [4]) | melting point | IC50 (1205Lu; [5]) | IC50 (FHC; FHC) | also measured
N.N.[Cl][Pt][Cl] [Cisplatin, cisplatin, reference compound] | 18.2 ± 2.5 µM |  |  |  |  | IC50 (HCT116; MTS assay, 48 h treatment, colorectal carcinoma, read-out: IC50 (μM) ± SD HCT116): 12.1 ± 2.5 µM; SI HCT116 (HCT116): 2.07; SI OVCAR10 (OVCAR 10): 1.37; IC50 (1205Lu; MTS assay, 48 h treatment, human metastatic melanoma, read-out: IC50 (μM) ± SD 1205Lu): 19 ± 1.5 µM; SI 1205Lu (1205Lu): 1.3; IC50 (FHC): 25.1 ± 3.2 µM
O=C1N(Cc2ccccc2)c2c(Br)cc(Br)cc2C1(O)CN1CCOCC1 (stereo not shown) [Compound 4j, 1-Benzyl-5,7-dibromo-3-hydroxy-3-(morpholinomethyl)indolin-2-one] | 8.56 ± 1.1 µM | 9.63 ± 1.3 µM |  | 12.2 ± 1.7 µM | 20.6 ± 3.1 µM | IC50 (HCT116; [6]): 9.63 µM; SI HCT116 (HCT116): 2.12; SI OVCAR10 (OVCAR 10): 2.40; IC50 (OVCAR 10; [7]): 8.56 µM; IC50 (1205Lu; [8]): 12.2 µM; SI 1205Lu (1205Lu): 1.68; apoptotic cells, Annexin V/7-AAD (HCT-116 cells [1]; 24 h): 19.5%; apoptotic cells, Annexin V/7-AAD (HCT-116 cells [1]; 48 h): 46.15%; apoptotic cell population, Caspase 3/7 7-AAD (HCT-116 cells [2]; 24 h): 21.5%; apoptotic cell population, Caspase 3/7 7-AAD (HCT-116 cells [2]; 48 h): 57.9%
